{"source": "ChEMBL document CHEMBL5465560", "about": "“Selectivity Literature for EUbOPEN Chemogenomic Library” (2024)", "key": {"[1]": {"biological_target": "T1, Serine/threonine-protein kinase LATS2 (Homo sapiens) (UniProt Q9NRM7)", "T1 sequence (whole entry)": "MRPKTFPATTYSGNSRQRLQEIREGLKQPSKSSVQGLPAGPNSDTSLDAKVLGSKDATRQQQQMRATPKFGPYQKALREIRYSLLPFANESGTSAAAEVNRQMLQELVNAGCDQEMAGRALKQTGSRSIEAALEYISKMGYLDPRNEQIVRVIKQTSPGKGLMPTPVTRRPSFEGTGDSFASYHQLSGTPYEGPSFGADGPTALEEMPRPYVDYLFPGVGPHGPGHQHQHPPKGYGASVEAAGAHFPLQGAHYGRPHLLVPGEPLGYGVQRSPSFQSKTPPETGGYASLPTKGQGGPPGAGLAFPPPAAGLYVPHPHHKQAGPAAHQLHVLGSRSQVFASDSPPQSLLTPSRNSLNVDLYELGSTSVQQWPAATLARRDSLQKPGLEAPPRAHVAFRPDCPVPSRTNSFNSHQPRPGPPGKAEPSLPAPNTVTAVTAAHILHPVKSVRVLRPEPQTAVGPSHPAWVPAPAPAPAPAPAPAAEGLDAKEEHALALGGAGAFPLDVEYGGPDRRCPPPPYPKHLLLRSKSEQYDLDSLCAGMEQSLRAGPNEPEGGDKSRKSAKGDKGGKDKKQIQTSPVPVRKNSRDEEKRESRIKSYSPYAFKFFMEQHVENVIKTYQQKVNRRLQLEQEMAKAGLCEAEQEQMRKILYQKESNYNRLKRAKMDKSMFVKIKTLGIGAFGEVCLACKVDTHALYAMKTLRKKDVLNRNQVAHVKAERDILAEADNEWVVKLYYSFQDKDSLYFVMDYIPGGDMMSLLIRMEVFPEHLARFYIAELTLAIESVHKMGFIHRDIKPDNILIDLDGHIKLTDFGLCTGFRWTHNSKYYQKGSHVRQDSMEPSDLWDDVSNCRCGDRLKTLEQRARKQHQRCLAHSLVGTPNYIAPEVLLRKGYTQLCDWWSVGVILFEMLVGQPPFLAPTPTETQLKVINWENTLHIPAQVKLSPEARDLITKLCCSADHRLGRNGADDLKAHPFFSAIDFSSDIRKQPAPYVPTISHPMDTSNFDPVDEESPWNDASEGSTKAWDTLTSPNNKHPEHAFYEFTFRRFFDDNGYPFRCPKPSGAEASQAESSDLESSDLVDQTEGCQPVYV", "details": "at 10 µM"}, "[2]": {"biological_target": "Tyrosine-protein kinase JAK2 (Homo sapiens, UniProt O60674)", "sequence (O60674 whole entry)": "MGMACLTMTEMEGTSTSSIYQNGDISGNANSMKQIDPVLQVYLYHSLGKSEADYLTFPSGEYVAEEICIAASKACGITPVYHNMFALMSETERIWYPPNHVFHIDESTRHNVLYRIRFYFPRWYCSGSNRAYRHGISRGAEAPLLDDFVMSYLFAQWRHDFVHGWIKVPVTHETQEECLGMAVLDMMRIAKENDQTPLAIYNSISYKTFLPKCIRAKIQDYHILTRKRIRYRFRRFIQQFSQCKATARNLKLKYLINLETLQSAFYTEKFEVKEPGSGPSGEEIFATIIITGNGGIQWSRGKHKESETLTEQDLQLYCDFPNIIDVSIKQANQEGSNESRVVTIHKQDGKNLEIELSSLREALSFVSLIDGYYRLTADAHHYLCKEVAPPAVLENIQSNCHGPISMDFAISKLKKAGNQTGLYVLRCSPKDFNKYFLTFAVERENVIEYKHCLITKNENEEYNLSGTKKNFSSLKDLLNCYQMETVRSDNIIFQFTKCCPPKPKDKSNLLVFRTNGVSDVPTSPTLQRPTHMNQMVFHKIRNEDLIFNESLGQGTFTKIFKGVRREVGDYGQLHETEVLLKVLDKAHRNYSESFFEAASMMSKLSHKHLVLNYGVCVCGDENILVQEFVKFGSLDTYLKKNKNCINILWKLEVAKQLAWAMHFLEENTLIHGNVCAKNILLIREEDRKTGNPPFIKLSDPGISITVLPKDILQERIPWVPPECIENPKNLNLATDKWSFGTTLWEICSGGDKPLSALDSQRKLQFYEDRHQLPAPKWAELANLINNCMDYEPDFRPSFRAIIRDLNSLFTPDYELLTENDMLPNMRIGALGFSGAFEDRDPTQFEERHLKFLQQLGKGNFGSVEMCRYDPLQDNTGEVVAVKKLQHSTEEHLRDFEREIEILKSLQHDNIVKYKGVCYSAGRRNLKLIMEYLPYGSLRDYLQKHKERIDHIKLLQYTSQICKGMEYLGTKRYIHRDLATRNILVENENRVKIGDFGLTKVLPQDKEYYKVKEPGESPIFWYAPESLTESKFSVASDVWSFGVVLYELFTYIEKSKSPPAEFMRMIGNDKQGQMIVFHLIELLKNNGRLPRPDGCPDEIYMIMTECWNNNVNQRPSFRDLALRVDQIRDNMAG", "experiment": "Selectivity interaction (Kinase counterscreening (biochemical assay)) EUB0000604a JAK2"}, "[3]": {"biological_target": "T2, Ephrin type-A receptor 8 (Homo sapiens) (UniProt P29322)", "T2 sequence (whole entry)": "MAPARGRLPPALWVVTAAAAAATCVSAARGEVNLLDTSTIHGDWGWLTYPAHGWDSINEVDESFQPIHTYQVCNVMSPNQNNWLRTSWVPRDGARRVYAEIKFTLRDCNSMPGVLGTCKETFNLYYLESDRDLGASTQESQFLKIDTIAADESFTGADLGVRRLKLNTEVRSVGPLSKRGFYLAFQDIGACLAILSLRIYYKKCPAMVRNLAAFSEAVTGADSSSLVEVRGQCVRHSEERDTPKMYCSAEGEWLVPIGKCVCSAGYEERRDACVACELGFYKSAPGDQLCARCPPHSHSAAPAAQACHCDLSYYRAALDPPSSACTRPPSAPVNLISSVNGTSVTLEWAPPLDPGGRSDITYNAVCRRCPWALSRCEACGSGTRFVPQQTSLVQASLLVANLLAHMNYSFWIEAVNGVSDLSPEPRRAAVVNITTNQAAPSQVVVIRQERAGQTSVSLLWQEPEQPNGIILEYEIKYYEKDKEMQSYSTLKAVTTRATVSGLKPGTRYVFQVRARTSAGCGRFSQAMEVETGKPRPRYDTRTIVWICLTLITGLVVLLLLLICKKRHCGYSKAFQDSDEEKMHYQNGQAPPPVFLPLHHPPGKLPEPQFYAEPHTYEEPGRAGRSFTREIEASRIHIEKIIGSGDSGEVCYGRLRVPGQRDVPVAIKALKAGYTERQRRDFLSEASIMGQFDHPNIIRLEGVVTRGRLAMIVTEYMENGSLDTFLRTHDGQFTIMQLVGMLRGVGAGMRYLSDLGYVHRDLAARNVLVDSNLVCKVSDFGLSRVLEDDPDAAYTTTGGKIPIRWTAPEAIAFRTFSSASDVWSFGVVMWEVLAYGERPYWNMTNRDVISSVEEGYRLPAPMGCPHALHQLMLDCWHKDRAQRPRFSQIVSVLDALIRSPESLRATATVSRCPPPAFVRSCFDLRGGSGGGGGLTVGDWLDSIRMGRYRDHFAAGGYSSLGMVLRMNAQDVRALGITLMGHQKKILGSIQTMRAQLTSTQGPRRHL", "experiment": "Selectivity interaction (Kinase panel (Invitrogen)) EUB0000639a EPHA8", "details": "at 200 nM"}, "Focal adhesion kinase 1": {"biological_target": "Focal adhesion kinase 1 (Homo sapiens, UniProt Q05397)", "sequence (Q05397 2-1052 limits assumed)": "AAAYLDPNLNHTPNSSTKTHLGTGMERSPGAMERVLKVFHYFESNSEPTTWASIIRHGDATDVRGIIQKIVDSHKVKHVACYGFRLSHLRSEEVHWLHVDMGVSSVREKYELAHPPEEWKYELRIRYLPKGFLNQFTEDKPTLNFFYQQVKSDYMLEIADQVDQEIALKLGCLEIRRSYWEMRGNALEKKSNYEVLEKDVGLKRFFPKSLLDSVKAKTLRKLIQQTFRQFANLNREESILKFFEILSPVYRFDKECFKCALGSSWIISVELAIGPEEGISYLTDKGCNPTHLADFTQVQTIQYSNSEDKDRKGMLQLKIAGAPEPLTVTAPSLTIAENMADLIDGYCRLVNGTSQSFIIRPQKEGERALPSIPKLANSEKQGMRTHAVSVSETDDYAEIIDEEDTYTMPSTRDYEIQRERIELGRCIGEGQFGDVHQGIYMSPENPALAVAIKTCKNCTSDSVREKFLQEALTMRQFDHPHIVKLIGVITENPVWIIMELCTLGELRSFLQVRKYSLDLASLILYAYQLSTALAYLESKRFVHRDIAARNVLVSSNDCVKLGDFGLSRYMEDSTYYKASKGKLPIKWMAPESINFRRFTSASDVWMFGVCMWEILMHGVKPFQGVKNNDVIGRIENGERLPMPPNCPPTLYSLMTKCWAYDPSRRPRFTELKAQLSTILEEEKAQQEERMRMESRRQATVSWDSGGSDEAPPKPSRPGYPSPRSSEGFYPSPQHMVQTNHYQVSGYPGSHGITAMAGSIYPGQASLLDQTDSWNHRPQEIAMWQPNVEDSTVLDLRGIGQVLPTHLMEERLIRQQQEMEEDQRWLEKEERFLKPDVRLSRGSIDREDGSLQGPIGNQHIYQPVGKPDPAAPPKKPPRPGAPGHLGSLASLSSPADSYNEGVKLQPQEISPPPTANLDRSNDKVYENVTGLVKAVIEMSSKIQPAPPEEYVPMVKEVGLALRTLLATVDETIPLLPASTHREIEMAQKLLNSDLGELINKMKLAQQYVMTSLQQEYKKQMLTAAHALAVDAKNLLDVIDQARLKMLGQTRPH", "experiment": "Selectivity interaction (Kinase panel (Z-LYTE Assay)) EUB0001632a PTK2", "details": "at 10 µM"}, "[4]": {"biological_target": "T3, Serine/threonine-protein kinase Sgk2 (Homo sapiens) (UniProt Q9HBY8)", "T3 sequence (whole entry)": "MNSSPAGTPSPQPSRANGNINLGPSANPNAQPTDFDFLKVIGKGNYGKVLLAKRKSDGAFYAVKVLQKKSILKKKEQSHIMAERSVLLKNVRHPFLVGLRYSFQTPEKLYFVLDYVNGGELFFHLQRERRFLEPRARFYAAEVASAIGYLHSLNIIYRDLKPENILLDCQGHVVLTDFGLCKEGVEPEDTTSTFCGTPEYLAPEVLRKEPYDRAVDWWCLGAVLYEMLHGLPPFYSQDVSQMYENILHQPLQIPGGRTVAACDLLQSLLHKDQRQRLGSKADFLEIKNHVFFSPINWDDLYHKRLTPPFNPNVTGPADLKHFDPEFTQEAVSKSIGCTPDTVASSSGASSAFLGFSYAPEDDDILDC", "experiment": "Selectivity interaction (KinomeScan (DiscoverX)) EUB0000695a SGK2", "details": "at 100 nM"}, "[5]": {"biological_target": "Platelet-derived growth factor receptor beta (Homo sapiens, UniProt P09619)", "sequence (P09619 whole entry)": "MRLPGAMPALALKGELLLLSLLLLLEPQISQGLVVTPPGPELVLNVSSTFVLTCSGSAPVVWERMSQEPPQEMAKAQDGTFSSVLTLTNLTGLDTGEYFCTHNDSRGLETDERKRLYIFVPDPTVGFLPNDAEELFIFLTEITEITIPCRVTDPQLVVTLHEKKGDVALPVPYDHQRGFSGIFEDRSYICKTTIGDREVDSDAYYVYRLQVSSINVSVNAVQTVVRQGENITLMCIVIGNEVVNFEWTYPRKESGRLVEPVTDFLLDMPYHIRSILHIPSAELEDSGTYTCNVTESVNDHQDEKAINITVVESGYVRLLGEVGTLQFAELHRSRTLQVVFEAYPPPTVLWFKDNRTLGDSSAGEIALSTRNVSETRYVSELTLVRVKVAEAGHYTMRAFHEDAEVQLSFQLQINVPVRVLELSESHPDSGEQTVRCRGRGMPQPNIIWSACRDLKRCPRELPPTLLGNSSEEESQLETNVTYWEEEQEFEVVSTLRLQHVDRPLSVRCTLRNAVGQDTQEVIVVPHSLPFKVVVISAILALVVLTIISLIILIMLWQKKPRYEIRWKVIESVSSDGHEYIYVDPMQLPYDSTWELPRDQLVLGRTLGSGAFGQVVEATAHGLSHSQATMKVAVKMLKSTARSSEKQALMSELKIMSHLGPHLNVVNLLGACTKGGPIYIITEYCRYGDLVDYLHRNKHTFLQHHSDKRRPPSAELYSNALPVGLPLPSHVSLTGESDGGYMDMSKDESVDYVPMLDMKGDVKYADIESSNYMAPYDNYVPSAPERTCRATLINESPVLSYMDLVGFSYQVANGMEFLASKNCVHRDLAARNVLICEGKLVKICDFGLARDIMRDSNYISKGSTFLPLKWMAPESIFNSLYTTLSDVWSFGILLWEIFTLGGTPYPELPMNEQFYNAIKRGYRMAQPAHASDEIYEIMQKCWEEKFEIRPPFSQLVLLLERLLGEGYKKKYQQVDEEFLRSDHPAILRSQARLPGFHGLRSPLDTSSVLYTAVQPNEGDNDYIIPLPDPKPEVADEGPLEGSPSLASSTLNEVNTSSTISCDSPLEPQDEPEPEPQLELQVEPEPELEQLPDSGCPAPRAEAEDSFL", "experiment": "Selectivity interaction (KinomeScan (DiscoverX)) EUB0000229b PDGFRB", "details": "at 10 µM"}, "[6]": {"biological_target": "Dual specificity protein kinase CLK1 (Homo sapiens, UniProt P49759)", "sequence (P49759 whole entry, looked up)": "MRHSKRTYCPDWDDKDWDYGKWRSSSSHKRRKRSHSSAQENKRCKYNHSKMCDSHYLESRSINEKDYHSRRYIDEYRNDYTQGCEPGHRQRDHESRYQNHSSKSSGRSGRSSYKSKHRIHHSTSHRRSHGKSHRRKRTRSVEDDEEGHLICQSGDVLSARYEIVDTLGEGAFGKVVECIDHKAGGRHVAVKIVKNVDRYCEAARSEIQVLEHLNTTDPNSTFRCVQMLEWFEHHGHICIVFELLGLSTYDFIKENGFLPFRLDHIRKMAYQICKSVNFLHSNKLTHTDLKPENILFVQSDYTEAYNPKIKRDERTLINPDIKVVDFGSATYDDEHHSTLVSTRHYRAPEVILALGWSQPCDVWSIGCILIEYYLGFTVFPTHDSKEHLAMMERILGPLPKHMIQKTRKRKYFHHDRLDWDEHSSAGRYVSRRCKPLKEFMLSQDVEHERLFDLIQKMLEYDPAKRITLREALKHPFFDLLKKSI", "experiment": "Selectivity interaction (KinomeScan (DiscoverX)) EUB0001079a CLK1", "details": "at 1 µM"}, "[7]": {"biological_target": "Ephrin type-A receptor 2 (Homo sapiens) (UniProt P29317)", "sequence (P29317 whole entry)": "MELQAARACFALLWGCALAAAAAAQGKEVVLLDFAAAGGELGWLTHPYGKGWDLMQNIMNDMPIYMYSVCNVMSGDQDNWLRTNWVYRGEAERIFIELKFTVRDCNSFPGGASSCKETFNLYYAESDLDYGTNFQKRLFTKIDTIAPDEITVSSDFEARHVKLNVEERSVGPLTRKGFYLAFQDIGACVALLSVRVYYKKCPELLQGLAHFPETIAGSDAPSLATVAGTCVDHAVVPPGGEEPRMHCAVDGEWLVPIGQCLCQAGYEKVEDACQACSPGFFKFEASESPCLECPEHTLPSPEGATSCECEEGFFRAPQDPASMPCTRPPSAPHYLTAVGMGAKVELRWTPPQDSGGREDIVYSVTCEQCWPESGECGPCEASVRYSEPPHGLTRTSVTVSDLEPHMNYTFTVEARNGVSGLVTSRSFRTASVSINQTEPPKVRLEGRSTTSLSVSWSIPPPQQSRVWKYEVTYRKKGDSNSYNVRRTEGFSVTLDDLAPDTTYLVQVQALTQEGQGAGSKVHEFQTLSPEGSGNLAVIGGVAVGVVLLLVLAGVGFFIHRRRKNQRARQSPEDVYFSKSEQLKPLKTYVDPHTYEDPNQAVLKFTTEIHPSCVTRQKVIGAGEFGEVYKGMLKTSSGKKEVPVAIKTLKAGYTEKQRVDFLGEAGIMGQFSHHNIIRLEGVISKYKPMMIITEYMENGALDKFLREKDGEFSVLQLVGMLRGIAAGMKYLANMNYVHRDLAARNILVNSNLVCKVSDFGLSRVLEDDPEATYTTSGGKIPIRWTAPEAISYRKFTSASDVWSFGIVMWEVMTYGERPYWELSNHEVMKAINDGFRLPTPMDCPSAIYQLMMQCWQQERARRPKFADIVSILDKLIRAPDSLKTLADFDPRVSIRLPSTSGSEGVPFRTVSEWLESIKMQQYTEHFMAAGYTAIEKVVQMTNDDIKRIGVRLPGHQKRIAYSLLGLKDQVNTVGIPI", "experiment": "Selectivity interaction (KinomeScan (DiscoverX)) EUB0000607a EPHA2", "details": "at 10 µM"}}}
{"smiles": "Cc1cc([C@@H](C)Nc2ccccc2C(=O)O)c2nc(N3CCOCC3)cc(=O)n2c1", "note": "[AZD-6482]", "values": [{"measurement": "% of control", "setting": "[1]", "result": 63, "unit": "%"}]}
{"smiles": "Cc1cnc(Nc2ccc(F)cc2Cl)nc1-c1c[nH]c(C(=O)N[C@H](CO)c2cccc(Cl)c2)c1", "values": [{"measurement": "Ki", "setting": "[2]", "result": "> 4", "unit": "µM"}]}
{"smiles": "CC[C@@H]1[C@H](F)C(=O)N[C@@H]1COc1nccc2cc(C(N)=O)c(OC)cc12", "note": "[ZIMLOVISERTIB]", "values": [{"measurement": "% of inhibition", "setting": "[3]", "result": -0.726, "unit": "%"}]}
{"smiles": "Cn1cc(-n2cnc3c(NCc4nc5cc(Cl)c(Cl)cc5[nH]4)nc(N4CCOCC4)nc32)cn1", "values": [{"measurement": "% of control", "setting": "Focal adhesion kinase 1", "result": 5.39, "unit": "%"}]}
{"smiles": "Cc1cc(F)c(C(=O)Nc2cccc(-c3nncn3C(C)C)n2)cc1-n1cnc(C2CC2)c1", "values": [{"measurement": "% of control", "setting": "[4]", "result": 100, "unit": "%"}]}
{"smiles": "COc1cc(N(C)c2ccnc3ccc(C(F)(F)F)cc23)cc(OC)c1OC", "values": [{"measurement": "% binding", "setting": "[5]", "result": 98, "unit": "%"}]}
{"smiles": "Nc1cnc(N2CCc3cc(S(=O)(=O)Nc4c(F)cc(Cl)cc4F)cc(N4CCCC4=O)c32)nc1", "note": "[TP-020n]", "values": [{"measurement": "% of control", "setting": "[6]", "result": 85, "unit": "%"}]}
{"smiles": "CNC(=O)Nc1ccc(-c2nc(N3CC4CCC(C3)O4)c3cnn(C4CCC5(CC4)OCCO5)c3n2)cc1", "values": [{"measurement": "% of control", "setting": "[7]", "result": 81, "unit": "%"}]}
